Like-named read-outs stand apart in the source and are kept apart here.
Test system: KARN cells (Jurkat 2C4)
Test: KARN assay (luciferase induction)
Assay type: cell-based
Settings: ~20 hr, 100% induction = 2 μM SAHA
Experimental: KARN cells (Jurkat 2C4) were licensed from the laboratory of Dr. John Kam, Case Western Reserve University, School of Medicine. […] An atmosphere of 5% CO2 and 90% humidity was used for all culture work. Cells were split and reseeded into T175 flasks at a density of 0.2×10^6 cells/ml, in 40 ml of media, every 3-4 days.
Day 1: After the 3-4 day growth period, the cells were transferred from the T175 flask to a 50 ml conical tube and gently pelleted at 1000 rpm for 5 minutes. […] These flasks were returned to the incubator.
Day 2: Cell Preparation: The next day, the cells were transferred from each T175 flask to an individual 50 ml conical tube and gently pelleted at 1000 rpm for 5 minutes. The cells were gently resuspended in assay media (30 ml) and pelleted again. […] The cells were counted using the ViCell (Beckman Coulter, Brea, Calif.) and diluted as necessary. A Multidrop (Combi, Thermo Scientific, Waltham, Mass.) with a sterile head was used to seed the cells into the wells of a 384-well solid black plate with lid (Perkin Elmer, Waltham, Mass., catalog number 6007660) at 4000 cells/30 μl/well for the 5% NHS assay media and 6000 cells/30 μl/well for 0.1% NHS assay. The plates were covered and returned to the incubator prior to compound addition.
Compound Preparation: Solutions of control inhibitor suberoylanilide hydroxamic acid (SAHA; Sigma, catalog number SML0061) and test compounds in 100% DMSO were titrated into 384-well polypropylene plates (Labcyte, San Jose, Calif., catalog number P-05525) using a 20-point dose response and 2-fold dilutions. The reference compounds, DMSO and SAHA were then added to the compound plate. Using the Access system (Labcyte), 120 nl of these inhibitor and control solutions were added to the individual wells of the plates containing the cells, and the plates were then returned to the incubator for ˜20 hr (range from 18-24 hr). The final high concentration for SAHA and the test compounds in the assays was 40 μM. The final DMSO concentration in all wells was 0.4%. The minimal induction reference compound used was DMSO and the maximal induction reference compound used was SAHA (2 μM final concentration in the assay).
Day 3: The luciferase detection reagent was prepared by transferring the contents of one bottle of Steady-Glo buffer to one bottle of Steady-Glo substrate (Steady-Glo Luciferase Assay System, Promega, Madison, […]., catalog number E2520), followed by gently mixing until the substrate was thoroughly dissolved and the solution was equilibrated to room temperature. The cell culture assay plates were removed from the incubator and brought to room temperature (15 min). The Steady-Glo Reagent was added to the plates (30 μl/well), which were then covered with a black lid and incubated for 10 minutes at room temperature. The plates were then read for luminescence on an Envision (Perkin Elmer) using the ultrasensitive mode (US LUM), […] and 384-well aperture. Luminescence counts in the DMSO reference wells were considered as 0% induction, while those in the 2 μM SAHA reference wells were considered as 100% induction. Dose response curves were plotted as test compound concentration (X-axis) vs. percent activation (Y-axis) using a 4-parameter fit based on the Levenberg-Marquardt algorithm.

[1] = Jurkat, read-out: Karn EC50 with 0.1% NHS, 0.1% normal human serum
[2] = Jurkat, read-out: Karn EC50 with 5% NHS, 5% normal human serum
[3] = read-out: Karn EC50 with 0.1% NHS, 0.1% normal human serum
[4] = read-out: Karn EC50 with 5% NHS, 5% normal human serum

Row | Compound | EC50 [1] | EC50 [2] | EC50 [3] | EC50 [4]
1 | CCC(=O)CCCCC[C@H](NC(=O)[C@H]1CC12CCN(CC)CC2)c1[nH]c2nc1C(=O)NCCC/C=C/c1cccc-2c1 [Compound 15, (1S)-6-ethyl-N-{(1S)-7-oxo-1-[(11E)-6-oxo-3,7,18-triazatricyclo[11.3.1.1~2,5~]octadeca-1(17),2(18),4,11,13,15-hexaen-4-yl]nonyl}-6-azaspiro[2.5]octane-1-carboxamide] | 5.24 µM | 19.3 µM | – | –
2 | CCC(=O)CCCCC[C@@H]1NC(=O)[C@H]2CC23CCN(CCCCCCCCn2ccc4cc(c(OC)cc4c2=O)-c2cnc1[nH]2)CC3 [Compound 5, (1^1S,4S)-6^7-methoxy-4-(6-oxooctyl)-6^1,6^2-dihydro-5^1H-3-aza-6(6,2)-isoquinolina-15(4,1)-piperidina-5(2,5)-imidazola-1(1,2)-cyclopropanapentadecaphane-6^1,2-dione] | 0.011 µM | 0.012 µM | – | –
3 | CCC(=O)CCCCC[C@@H]1NC(=O)[C@H]2CC23CCN(CCCOCCCn2ccc4cc(ccc4c2=O)-c2cnc1[nH]2)CC3 [Compound 12, (3S,6S)-6-(6-oxooctyl)-22-oxa-5,8,18,26,33-pentaazahexacyclo[24.2.2.1˜7,10˜0.1˜11,15˜0.1˜14,18˜0.0˜1,3˜]tritriaconta-7,9,11(32),12,14,16-hexaene-4,31-dione] | 1.79 µM | 1.99 µM | – | –
4 | (11S,4S)-4-(6-oxooctyl)-61,62-dihydro-3-aza-5(2,5)-oxazola-6(6,1)-quinolina-12(4,1)-piperidina-1(1,2)-cyclopropanadodecaphane-62,2-dione [Compound 8] | – | – | > 40 µM | > 40 µM
5 | CCC(=O)CCCCCC1NC(=O)C2CC2N2CCC(CCCCCn3c(=O)ccc4cc(ccc43)-c3cnc1o3)CC2 [Compound 7, (11S,4S)-4-(6-oxooctyl)-61,62-dihydro-3-aza-5(2,5)-oxazola-6(6,1)-quinolina-12(4,1)-piperidina-1(1,2)-cyclopropanadodecaphane-62,2-dione] | – | – | 5.15 µM | 4.73 µM

From US11976069B2, “Inhibitors of histone deacetylase useful for the treatment or prevention of HIV infection” (Merck Sharp & Dohme LLC, priority 2019, dated 2024)
